Measured values published in patent US20240025906A1 (NEURON23, INC., priority 2022, published 2024).
Read-outs that look alike come from different tables or passages of the source.

Legend:
Psoriasis patients = settings: humans; TYK2 inhibitor; background statement citing Armstrong et al, Ann of Rheu Dis, 2020; cited from earlier work
[1] = system: JAK1/TYK2 pSTAT5 (Tyr694/699) in THP-1 cell line; experiment: IFNa-stimulated JAK1/TYK2 pSTAT5 (Tyr694/699) inhibition cellular assay, AlphaLISA; type: cell-based; settings: Homo sapiens, THP-1 cells, IFNa-stimulated, AlphaLISA (Assay B)
Procedure, shortened: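 Compound dilutions were dispensed first, and HBSS-suspended THP-1 cells were added on top (final top concentration 10000 nM, 6-fold series). After 1 h at 37 °C, IFNa (100 ng/mL as added) was applied for 30 min. Cells were then lysed and pSTAT5 was quantified by AlphaLISA.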

TYK2 JH2 = target: T1, TYK2 JH2 (Homo sapiens, UniProt P29597); experiment: TYK2 JH2 binding assay (KINOMEscan KdELECT competitive binding); settings: TYK2 JH2 domain
T1 construct: purchased DiscoverX (KINOMEscan KdELECT service); host or cells: E. coli BL21-derived (T7 phage display) or HEK-293
T1 sequence (P29597 589-875 limits assumed): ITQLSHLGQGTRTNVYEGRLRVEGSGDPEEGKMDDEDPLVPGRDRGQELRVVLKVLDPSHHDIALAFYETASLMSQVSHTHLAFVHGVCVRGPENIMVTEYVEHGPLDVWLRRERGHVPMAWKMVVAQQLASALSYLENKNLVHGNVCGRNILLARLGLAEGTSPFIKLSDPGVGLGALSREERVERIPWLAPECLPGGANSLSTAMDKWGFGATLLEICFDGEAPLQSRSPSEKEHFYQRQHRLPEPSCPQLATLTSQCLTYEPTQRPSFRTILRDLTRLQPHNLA
Procedure, shortened: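 Kd values come from qPCR measurement of kinase retained on an immobilized-ligand resin after 1 h room-temperature competition with compound in an 11-point, 3-fold series.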

[2] = read-out: Cellular_THP1_IFNa-pSTATS_TYK2
[3] = DiscoverX KINOMEscan KdELECT (Assay A), read-out: Biochemical TYK2_DiscoverX_JH2_BND_Kd
[4] = KINOMEscan KdELECT (Assay A), read-out: Biochemical TYK2_DiscoverX_JH2_BND_Kd
[5] = read-out: Cellular THP1_IFNa-pSTATS_IC50
[6] = KINOMEscan KdELECT (Assay A), read-out: Biochemical TYK2_JH2_Kd

Molecule	IC50 [1, 2] [nM]	Kd (TYK2 JH2; [3]) [nM]	Kd (TYK2 JH2; [4]) [nM]	also measured
deucravacitinib	–	–	–	efficacy in Psoriasis patients (Psoriasis patients): efficacy
CNc1ncc(-c2nc3cc(OCC4CCC4)ccc3o2)c2cc(NC(=O)C3CC3)ncc12 [Example 337, N-(5-(5-(cyclobutylmethoxy)benzo[d]oxazol-2-yl)-8-(methylamino)-2,7-naphthyridin-3-yl)cyclopropanecarboxamide]	> 500	≤ 100	–	–
CNc1ncc(-c2ccccc2)c2cc(NC(=O)C3CC3)ncc12 [Example 1, N-(8-(methylamino)-5-phenyl-2,7-naphthyridin-3-yl)cyclopropanecarboxamide]	–	–	–	IC50 [1, 5]: > 500 nM; Kd (TYK2 JH2; [6]): ≤ 100 nM
[2H]C([2H])([2H])Nc1ncc(-c2nc3ccc(N4CCOCC4)cn3n2)c2cc(NC(=O)C3(F)CC3)ncc12 [Example 571, 1-fluoro-N-(8-((methyl-d3)amino)-5-(6-morpholino-[1,2,4]triazolo[1,5-a]pyridin-2-yl)-2,7-naphthyridin-3-yl)cyclopropane-1-carboxamide]	≤ 500	≤ 100	–	–
CNc1ncc(-c2nc3ccc(N4CCO[C@@H](C)C4)cc3o2)c2cc(NC(=O)C3CC3)ncc12 [Example 275, (S)—N-(8-(methylamino)-5-(6-(2-methylmorpholino)benzo[d]oxazol-2-yl)-2,7-naphthyridin-3-yl)cyclopropanecarboxamide]	≤ 500	≤ 100	–	–
CNc1ncc(-c2ccccn2)c2cc(NC(=O)C3CC3)ncc12 [Example 4, N-(8-(methylamino)-5-(pyridin-2-yl)-2,7-naphthyridin-3-yl)cyclopropanecarboxamide]	–	–	–	IC50 [1, 5]: > 500 nM; Kd (TYK2 JH2; [6]): ≤ 100 nM
CNc1ncc(-c2ccc(-c3ccccn3)cc2)c2cc(NC(=O)C3CC3)ncc12 [Example 171, N-(8-(methylamino)-5-(4-(pyridin-2-yl)phenyl)-2,7-naphthyridin-3-yl)cyclopropanecarboxamide]	–	–	–	IC50 [1, 5]: ≤ 500 nM; Kd (TYK2 JH2; [6]): ≤ 100 nM
CNc1ncc(-c2nc3cc(OCCN4CCOCC4)ccc3o2)c2cc(NC(=O)C3CC3)ncc12 [Example 235, N-(8-(methylamino)-5-(5-(2-morpholinoethoxy)benzo[d]oxazol-2-yl)-2,7-naphthyridin-3-yl)cyclopropanecarboxamide]	≤ 500	≤ 100	–	–
CNc1ncc(-c2nc3c(F)cccn3n2)c2cc(NC(=O)C3CC3)nnc12 [Example 887, N-(5-(8-fluoro-[1,2,4]triazolo[1,5-a]pyridin-2-yl)-8-(methylamino)pyrido[3,4-c]pyridazin-3-yl)cyclopropanecarboxamide]	≤ 500	–	≤ 100	–
CNc1ncc(C#Cc2ccc(O[C@H]3CCOC3)cc2)c2cc(NC(=O)C3CC3)ncc12 [Example 691, (S)—N-(8-(methylamino)-5-((4-((tetrahydrofuran-3-yl)oxy)phenyl)ethynyl)-2,7-naphthyridin-3-yl)cyclopropanecarboxamide]	≤ 500	–	≤ 100	–
CNc1ncc(C#Cc2ccc(NC(C)=O)cc2)c2cc(NC(=O)C3CC3)ncc12 [Example 670, N-(5-((4-acetamidophenyl)ethynyl)-8-(methylamino)-2,7-naphthyridin-3-yl)cyclopropanecarboxamide]	≤ 500	–	≤ 100	–
CNc1ncc(C2=CCCC(c3nc[nH]n3)C2)c2cc(NC(=O)C3CC3)ncc12 (stereo not shown) [Example 832, N-(5-(5-(1H-1,2,4-triazol-3-yl)cyclohex-1-en-1-yl)-8-(methylamino)-2,7-naphthyridin-3-yl)cyclopropanecarboxamide]	> 500	–	≤ 100	–
CNc1ncc(-c2cc3ccccc3o2)c2cc(NC(=O)C3CC3)ncc12 [Example 114, N-(5-(benzofuran-2-yl)-8-(methylamino)-2,7-naphthyridin-3-yl)cyclopropanecarboxamide]	–	–	–	IC50 [1, 5]: ≤ 500 nM; Kd (TYK2 JH2; [6]): ≤ 100 nM
CNc1ncc(-c2nc3ccncc3o2)c2cc(NC(=O)C3CC3)ncc12 [Example 357, N-(8-(methylamino)-5-(oxazolo[5,4-c]pyridin-2-yl)-2,7-naphthyridin-3-yl)cyclopropanecarboxamide]	> 500	≤ 100	–	–
CNc1ncc(-c2nc3cc(OCC(C)(C)OC)ccc3o2)c2cc(NC(=O)C3CC3)ncc12 [Example 256, N-(5-(5-(2-methoxy-2-methylpropoxy)benzo[d]oxazol-2-yl)-8-(methylamino)-2,7-naphthyridin-3-yl)cyclopropanecarboxamide]	≤ 500	≤ 100	–	–
CNc1ncc(-c2nc3cc(N4CCOC[C@@H]4C)ccc3o2)c2cc(NC(=O)C3CC3)ncc12 [Example 308, (S)-N-(8-(methylamino)-5-(5-(3-methylmorpholino)benzo[d]oxazol-2-yl)-2,7-naphthyridin-3-yl)cyclopropanecarboxamide]	≤ 500	≤ 100	–	–
CNc1ncc(-c2ccc(O)cc2)c2cc(NC(=O)C3CC3)ncc12 [Example 861, N-(5-(4-hydroxyphenyl)-8-(methylamino)-2,7-naphthyridin-3-yl)cyclopropanecarboxamide]	≤ 500	–	≤ 100	–
CNc1ncc(C#Cc2ccc3nc(C)n(C(F)F)c3c2)c2cc(NC(=O)C3CC3)ncc12 [Example 763, N-(5-((1-(difluoromethyl)-2-methyl-1H-benzo[d]imidazol-6-yl)ethynyl)-8-(methylamino)-2,7-naphthyridin-3-yl)cyclopropanecarboxamide]	≤ 500	–	≤ 100	–

Further lines, with some results ahead:

IC50 [1, 2] [nM]	Kd (TYK2 JH2; [3]) [nM]	Kd (TYK2 JH2; [4]) [nM]	Molecule	also measured
≤ 500	≤ 100	–	CNc1ncc(-c2nc3cc(OC)ccc3o2)c2cc(NC(=O)[C@@H]3C[C@@H]3CO)ncc12 (single isomer, unassigned) [Example 468]	–
≤ 500	≤ 100	–	CNc1ncc(-c2nc3cccc(N4CC(COC)C4)c3o2)c2cc(NC(=O)C3CC3)ncc12 [Example 264, N-(5-(7-(3-(methoxymethyl)azetidin-1-yl)benzo[d]oxazol-2-yl)-8-(methylamino)-2,7-naphthyridin-3-yl)cyclopropanecarboxamide]	–
≤ 500	–	≤ 100	CNc1ncc(C#Cc2ccc3c(c2)OCC(CO)O3)c2cc(NC(=O)C3CC3)ncc12 (stereo not shown) [Example 696, N-(5-((2-(hydroxymethyl)-2,3-dihydrobenzo[b][1,4]dioxin-6-yl)ethynyl)-8-(methylamino)-2,7-naphthyridin-3-yl)cyclopropanecarboxamide]	–
≤ 500	≤ 100	–	CNc1ncc(-c2nc3ccc(N4CCO[C@H](C)C4)cn3n2)c2cc(NC(=O)[C@H]3C[C@H]3F)ncc12 [Example 548, (1R,2R)-2-fluoro-N-(8-(methylamino)-5-(6-((R)-2-methylmorpholino)-[1,2,4]triazolo[1,5-a]pyridin-2-yl)-2,7-naphthyridin-3-yl)cyclopropane-1-carboxamide]	–
≤ 500	≤ 100	–	CNc1ncc(-c2nc3c(Cl)cccn3n2)c2cc(NC(=O)C3CC3)ncc12 [Example 491, N-(5-(8-chloro-[1,2,4]triazolo[1,5-a]pyridin-2-yl)-8-(methylamino)-2,7-naphthyridin-3-yl)cyclopropanecarboxamide]	–
≤ 500	–	≤ 100	CNc1ncc(C#Cc2ccnc(C)c2)c2cc(NC(=O)C3CC3)ncc12 [Example 601, N-(8-(methylamino)-5-((2-methylpyridin-4-yl)ethynyl)-2,7-naphthyridin-3-yl)cyclopropanecarboxamide]	–
≤ 500	–	≤ 100	CNc1ncc(C#Cc2cc3c(cc2F)OCCO3)c2cc(NC(=O)C3CC3)ncc12 [Example 973, N-[5-[2-(6-fluoro-2,3-dihydro-1,4-benzodioxin-7-yl)ethynyl]-8-(methylamino)-2,7-naphthyridin-3-yl]cyclopropanecarboxamide]	–
≤ 500	≤ 100	–	CNc1ncc(-c2nc3cc(COC)ccc3o2)c2cc(NC(=O)C3CC3)ncc12 [Example 248, N-(5-(5-(methoxymethyl)benzo[d]oxazol-2-yl)-8-(methylamino)-2,7-naphthyridin-3-yl)cyclopropanecarboxamide]	–
≤ 500	–	≤ 100	CCNc1ncc(-c2cc3ccc(N4CCOCC4)cn3n2)c2cc(NC(=O)C3CC3)ncc12 [Example 876, N-(8-(ethylamino)-5-(6-morpholinopyrazolo[1,5-a]pyridin-2-yl)-2,7-naphthyridin-3-yl)cyclopropanecarboxamide]	–
≤ 500	–	≤ 100	CNc1ncc(C#Cc2ccc3nnn(CC(C)(C)O)c3c2)c2cc(NC(=O)C3CC3)ncc12 [Example 684, N-(5-((1-(2-hydroxy-2-methylpropyl)-1H-benzo[d][1,2,3]triazol-6-yl)ethynyl)-8-(methylamino)-2,7-naphthyridin-3-yl)cyclopropanecarboxamide]	–
